Results from patent US12227488B2, “Small molecule degraders of Helios and methods of use” (DANA-FARBER CANCER INSTITUTE, INC., priority 2018, dated 2025).

Columns and labels:
GSPT1 = GSPT1 (Homo sapiens, UniProt P15170+Q96SW2); assay: Cellular degradation assay, eGFP-GSPT1 fusion with mCherry reporter in Flp-In 293 cells; format: cell-based; design: expressed in transfected cells; host or cells: Flp-In 293; conditions: 5 h incubation, n=1
How it was run: (§1)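 Flp-In 293 cells stably expressing eGFP-tagged degron fusions with P2A-mCherry reporter were treated with compound titrations (0.5% DMSO) for 5 hours. Imaging quantified GFP-positive/mCherry-positive cell fraction per well; DC50 at 5 h from nonlinear variable-slope fit.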

SALL4 ZNF1-2 = target: T1, SALL4 ZNF1-2 (Homo sapiens, UniProt Q96SW2+Q9UJQ4); assay: Cellular degradation assay, eGFP-SALL4 ZnF1-2 fusion with mCherry reporter in Flp-In 293 cells; format: cell-based; conditions: 5 h incubation, n=1
T1 construct: IKZF1Δ, IKZF2Δ, GSPT1 and SALL4 ZnF1-2 were subcloned; expressed in transfected cells; host or cells: Flp-In 293
T1 sequence (Q9UJQ4 378-438 limits assumed): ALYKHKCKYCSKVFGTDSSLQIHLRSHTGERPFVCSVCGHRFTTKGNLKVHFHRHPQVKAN
T1 sequence (Q96SW2 whole entry, the tested form may be a part): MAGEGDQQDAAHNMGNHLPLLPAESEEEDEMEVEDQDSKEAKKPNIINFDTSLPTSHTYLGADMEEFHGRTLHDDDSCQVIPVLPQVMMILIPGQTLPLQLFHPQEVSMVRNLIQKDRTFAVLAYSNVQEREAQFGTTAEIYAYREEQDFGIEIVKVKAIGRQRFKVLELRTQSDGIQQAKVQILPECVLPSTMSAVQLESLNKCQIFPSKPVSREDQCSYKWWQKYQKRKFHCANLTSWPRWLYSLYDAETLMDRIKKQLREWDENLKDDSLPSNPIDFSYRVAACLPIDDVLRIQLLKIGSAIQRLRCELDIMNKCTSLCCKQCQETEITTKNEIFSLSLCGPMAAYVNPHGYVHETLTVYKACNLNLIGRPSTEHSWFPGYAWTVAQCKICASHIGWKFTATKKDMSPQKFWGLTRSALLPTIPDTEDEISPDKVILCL
T1 sequence (Q16531 whole entry partner, the tested form may be a part): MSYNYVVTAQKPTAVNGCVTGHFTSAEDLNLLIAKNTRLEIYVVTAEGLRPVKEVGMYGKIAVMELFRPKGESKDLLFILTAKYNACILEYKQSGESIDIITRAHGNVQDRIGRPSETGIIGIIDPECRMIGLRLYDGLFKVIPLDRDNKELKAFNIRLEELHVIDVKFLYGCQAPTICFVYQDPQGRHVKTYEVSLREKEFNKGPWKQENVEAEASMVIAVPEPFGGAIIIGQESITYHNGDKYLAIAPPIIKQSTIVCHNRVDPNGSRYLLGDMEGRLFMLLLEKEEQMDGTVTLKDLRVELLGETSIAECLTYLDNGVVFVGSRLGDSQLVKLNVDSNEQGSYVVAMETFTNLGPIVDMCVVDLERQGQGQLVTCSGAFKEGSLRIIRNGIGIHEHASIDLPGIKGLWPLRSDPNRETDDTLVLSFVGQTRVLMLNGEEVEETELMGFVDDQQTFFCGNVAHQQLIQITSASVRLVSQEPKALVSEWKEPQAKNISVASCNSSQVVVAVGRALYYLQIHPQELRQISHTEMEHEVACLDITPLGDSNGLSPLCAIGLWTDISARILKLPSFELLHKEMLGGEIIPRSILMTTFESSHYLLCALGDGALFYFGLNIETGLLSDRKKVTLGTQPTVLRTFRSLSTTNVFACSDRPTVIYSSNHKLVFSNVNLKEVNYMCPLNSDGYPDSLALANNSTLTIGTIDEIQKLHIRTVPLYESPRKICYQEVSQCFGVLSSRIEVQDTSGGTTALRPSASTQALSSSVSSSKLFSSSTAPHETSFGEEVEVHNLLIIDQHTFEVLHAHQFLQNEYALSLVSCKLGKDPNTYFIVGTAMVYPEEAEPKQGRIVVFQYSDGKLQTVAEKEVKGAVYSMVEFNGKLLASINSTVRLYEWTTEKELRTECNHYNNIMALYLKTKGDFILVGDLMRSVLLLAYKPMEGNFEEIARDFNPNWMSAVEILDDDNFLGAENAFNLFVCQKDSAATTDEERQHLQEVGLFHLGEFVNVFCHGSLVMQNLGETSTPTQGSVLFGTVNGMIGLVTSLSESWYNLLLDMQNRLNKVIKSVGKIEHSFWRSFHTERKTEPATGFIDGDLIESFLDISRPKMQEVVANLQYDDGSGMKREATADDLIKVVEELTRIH
Description: IKZF1Δ, IKZF2Δ, GSPT1 and SALL4 ZnF1-2 were subcloned into mammalian pcDNA5/FRT Vector (Ampicillin and Hygromycin B resistant) modified to contain MCS-eGFP-P2A-mCherry. Stable cell lines expressing eGFP-protein fusion and mCherry reporter were generated using Flp-In™ 293 system. Plasmid (0.3 μg) and pOG44 (4.7 μg) DNA were preincubated in 100 μL of Opti-MEM® I (Gibco®, Life Technologies™) media containing 0.05 mg/mL Lipofectamine® 2000 (Invitrogen™) for 20 min and added to Flp-In™ 293 cells containing 1.9 ml of DMEM media (Gibco®, Life Technologies™) per well in a 6-well plate format (Falcon, 353046). Cells were propagated after 48 h and transferred into a 10 cm^2 plate (Corning, 430165) in DMEM media containing 50 μg/mL of Hygromycin B (REF 10687010, Invitrogen™) as a selection marker. Following 2-3 passage cycle, FACS (FACSAria™ II, BD) was used to enrich for cells expressing eGFP and mCherry. Cells stably expressing the IKZF1Δ, IKZF2Δ, GSPT1 or SALL4 Znf1-2 GFP fusions with mCherry reporter were seeded at 30-50% confluency in 384-well plates with 50 μL FluoroBrite™ DMEM media (Thermo Fisher Scientific, A18967) containing 10% FBS per well a day before compound treatment. Compound titrations were dispensed using a D300e Digital Dispenser (HP), normalized to 0.5% DMSO, and incubated with cells for 5 hours. The assay plate was imaged immediately using an Acumen® High Content Imager (TTP Labtech) with 488 nm and 561 nm lasers in […] grid per well format.
The resulting images were analyzed using CellProfiler™. A series of image analysis steps (‘image analysis pipeline’) was constructed. First, the red and green channels were aligned and cropped to target the middle of each well (to avoid analysis of heavily clumped cells at the edges), and a background illumination function was calculated for both red and green channels of each well individually and subtracted to correct for illumination variations across the 384-well plate from various sources of error. An additional step was then applied to the green channel to suppress the analysis of large auto fluorescent artifacts and enhance the analysis of cell specific fluorescence by way of selecting for objects under a given size, 30 A.U., and with a given shape, speckles. mCherry-positive cells were then identified in the red channel filtering for objects between 8-60 pixels in diameter and using intensity to distinguish between clumped objects. The green channel was then segmented into GFP positive and negative areas and objects were labeled as GFP positive if at least 40% of it overlapped with a GFP positive area. The fraction of GFP-positive cells/mCherry-positive cells in each well was then calculated, and the green and red images were rescaled for visualization.

IKZF2 = assay: Cellular degradation assay, eGFP-IKZF2Δ fusion with mCherry reporter in Flp-In 293 cells; format: cell-based; conditions: 5 h incubation, n=1
How it was run: as §1

CRBN and Helios (IKZF2) = target: T2, CRBN and Helios (IKZF2) (Homo sapiens, UniProt Q96SW2+Q9UKS7); assay: TR-FRET dimerization assay (CRBN-IKZF2 ternary complex formation); format: binding; conditions: n=1
T2 construct: His (N); Strep (N)
T2 sequence (Q96SW2 whole entry): as the sequence (Q96SW2 whole entry, the tested form may be a part) above
T2 sequence (Q9UKS7 whole entry): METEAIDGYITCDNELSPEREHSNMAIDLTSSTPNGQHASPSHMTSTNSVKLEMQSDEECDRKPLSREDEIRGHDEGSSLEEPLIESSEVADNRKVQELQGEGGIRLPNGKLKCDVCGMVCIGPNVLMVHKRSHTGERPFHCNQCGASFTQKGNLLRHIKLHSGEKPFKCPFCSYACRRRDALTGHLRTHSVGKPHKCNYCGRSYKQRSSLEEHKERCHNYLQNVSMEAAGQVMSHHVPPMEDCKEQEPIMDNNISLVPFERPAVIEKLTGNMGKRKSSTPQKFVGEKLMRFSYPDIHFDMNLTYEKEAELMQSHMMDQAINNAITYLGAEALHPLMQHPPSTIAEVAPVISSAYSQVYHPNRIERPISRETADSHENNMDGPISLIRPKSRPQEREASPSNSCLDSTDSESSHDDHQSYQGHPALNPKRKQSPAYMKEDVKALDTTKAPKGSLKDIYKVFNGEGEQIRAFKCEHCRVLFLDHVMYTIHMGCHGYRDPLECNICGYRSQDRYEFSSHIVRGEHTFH
How it was run: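 BODIPY-labeled DDB1ΔB-CRBN and in vitro biotinylated IKZF2 were treated with increasing compound concentrations plus tracer Terbium-Streptavidin and incubated 15 min at rt. Recruitment was quantified as the 520/490 nm TR-FRET ratio; values are single measurements (n=1), each averaged from at least three technical replicates.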

IKZF1 = target: T3, IKZF1 (Homo sapiens, UniProt Q13422); assay: Cellular degradation assay, eGFP-IKZF1Δ fusion with mCherry reporter in Flp-In 293 cells; format: cell-based; conditions: 5 h incubation, n=1
T3 construct: expressed in transfected cells; host or cells: Flp-In 293
T3 sequence (Q13422 83-213 isoform Q13422-7 limits assumed): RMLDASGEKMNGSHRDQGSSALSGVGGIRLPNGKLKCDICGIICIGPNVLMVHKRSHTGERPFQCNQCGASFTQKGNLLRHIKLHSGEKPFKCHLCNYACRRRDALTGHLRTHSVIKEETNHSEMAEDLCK
T3 sequence (Q96SW2 whole entry partner, the tested form may be a part): as the sequence (Q96SW2 whole entry, the tested form may be a part) above
T3 sequence (Q16531 2-1140 partner limits assumed): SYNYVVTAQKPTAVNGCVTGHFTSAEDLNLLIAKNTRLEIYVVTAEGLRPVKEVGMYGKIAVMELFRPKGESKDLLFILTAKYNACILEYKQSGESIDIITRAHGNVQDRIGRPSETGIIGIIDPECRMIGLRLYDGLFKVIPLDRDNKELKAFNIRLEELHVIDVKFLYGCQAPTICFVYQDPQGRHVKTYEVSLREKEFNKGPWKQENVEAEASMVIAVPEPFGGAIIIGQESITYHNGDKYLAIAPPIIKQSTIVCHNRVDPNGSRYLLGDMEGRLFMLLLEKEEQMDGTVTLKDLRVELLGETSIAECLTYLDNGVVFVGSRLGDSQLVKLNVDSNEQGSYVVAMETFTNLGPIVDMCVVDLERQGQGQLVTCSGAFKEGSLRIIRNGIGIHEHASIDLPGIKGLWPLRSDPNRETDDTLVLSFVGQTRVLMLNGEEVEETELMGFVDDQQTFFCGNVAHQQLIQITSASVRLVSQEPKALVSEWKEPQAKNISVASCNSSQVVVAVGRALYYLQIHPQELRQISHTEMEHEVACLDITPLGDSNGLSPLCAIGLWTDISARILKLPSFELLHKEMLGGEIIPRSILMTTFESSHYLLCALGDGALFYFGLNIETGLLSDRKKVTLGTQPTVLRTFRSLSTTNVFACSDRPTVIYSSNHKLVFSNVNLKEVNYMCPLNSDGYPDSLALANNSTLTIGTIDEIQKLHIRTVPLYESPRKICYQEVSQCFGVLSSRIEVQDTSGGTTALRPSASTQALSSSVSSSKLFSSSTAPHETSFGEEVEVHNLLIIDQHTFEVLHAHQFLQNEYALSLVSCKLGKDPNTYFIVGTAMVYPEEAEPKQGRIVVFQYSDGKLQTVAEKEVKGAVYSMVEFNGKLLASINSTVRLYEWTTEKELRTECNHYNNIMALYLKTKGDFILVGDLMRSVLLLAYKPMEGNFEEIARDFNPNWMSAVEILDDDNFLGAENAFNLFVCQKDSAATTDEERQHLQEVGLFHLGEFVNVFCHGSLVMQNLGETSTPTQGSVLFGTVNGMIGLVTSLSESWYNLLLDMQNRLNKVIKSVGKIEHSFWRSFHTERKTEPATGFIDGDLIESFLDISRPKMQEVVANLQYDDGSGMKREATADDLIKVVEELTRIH
How it was run: as §1

[1] = compound concentration 2.00E−05
[2] = compound concentration 2.00E−06
[3] = compound concentration 2.00E−07
[4] = compound concentration 6.6667E−05
[5] = compound concentration 6.6667E−06
[6] = compound concentration 6.6667E−07 (667 nM)

GSPT1, sequence (P15170 whole entry, the tested form may be a part): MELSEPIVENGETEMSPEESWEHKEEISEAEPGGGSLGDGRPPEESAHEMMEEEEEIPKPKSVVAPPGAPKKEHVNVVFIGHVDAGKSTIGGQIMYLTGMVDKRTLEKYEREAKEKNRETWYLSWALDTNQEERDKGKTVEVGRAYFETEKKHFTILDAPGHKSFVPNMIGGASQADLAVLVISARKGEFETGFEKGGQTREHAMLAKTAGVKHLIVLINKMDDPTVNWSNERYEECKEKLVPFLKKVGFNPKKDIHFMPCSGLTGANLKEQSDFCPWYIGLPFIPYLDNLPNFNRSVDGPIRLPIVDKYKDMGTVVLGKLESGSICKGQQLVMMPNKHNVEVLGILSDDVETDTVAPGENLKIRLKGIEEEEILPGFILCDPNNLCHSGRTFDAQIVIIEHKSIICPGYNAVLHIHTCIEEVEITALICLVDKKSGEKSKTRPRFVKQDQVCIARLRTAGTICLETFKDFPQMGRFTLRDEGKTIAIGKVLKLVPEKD
GSPT1, sequence (Q96SW2 whole entry, the tested form may be a part): as the sequence (Q96SW2 whole entry, the tested form may be a part) above
GSPT1, sequence (Q16531 whole entry partner, the tested form may be a part): as the sequence (Q16531 whole entry partner, the tested form may be a part) above

Compound | GSPT1 GFP/RFP Relative Abundance (GSPT1; [1]) | GSPT1 GFP/RFP Relative Abundance (GSPT1; [2]) | GSPT1 GFP/RFP Relative Abundance (GSPT1; [3]) | SALL4 ZNF1-2 GFP/RFP Relative Abundance (SALL4 ZNF1-2; [1]) | SALL4 ZNF1-2 GFP/RFP Relative Abundance (SALL4 ZNF1-2; [2]) | SALL4 ZNF1-2 GFP/RFP Relative Abundance (SALL4 ZNF1-2; [3]) | IKZF2 GFP/RFP Relative Abundance (IKZF2; [1]) | IKZF2 GFP/RFP Relative Abundance (IKZF2; [2]) | IKZF2 GFP/RFP Relative Abundance (IKZF2; [3]) | TR-FRET-IKZF2 (Normalized to CC-885) (CRBN and Helios (IKZF2); [4]) | TR-FRET-IKZF2 (Normalized to CC-885) (CRBN and Helios (IKZF2); [5]) | TR-FRET-IKZF2 (Normalized to CC-885) (CRBN and Helios (IKZF2); [6]) | IKZF1 GFP/RFP Relative Abundance (IKZF1; [1]) | IKZF1 GFP/RFP Relative Abundance (IKZF1; [2]) | IKZF1 GFP/RFP Relative Abundance (IKZF1; [3])
COC(=O)CN(C)C1=CC(=O)N(C2CCC(=O)NC2=O)C1=O (stereo not drawn) [Compound 15, Methyl N-(1-(2,6-dioxopiperidin-3-yl)-2,5-dioxo-2,5-dihydro-1H-pyrrol-3-yl)-N-methylglycinate] | 1.009 | 1.036 | 1.043 | 0.912 | 0.910 | 1.047 | 1.024 | 1.036 | 1.028 | 0.050 | 0.039 | 0.025 | 1.041 | 1.032 | 0.996
CCOC(=O)CNC1=CC(=O)N(C2CCC(=O)NC2=O)C1=O (stereo not drawn) [Compound 16, Ethyl (1-(2,6-dioxopiperidin-3-yl)-2,5-dioxo-2,5-dihydro-1H-pyrrol-3-yl)glycinate] | 0.978 | 0.876 | 1.006 | 1.001 | 1.007 | 1.013 | 0.987 | 1.015 | 1.006 | 0.032 | 0.028 | 0.018 | 1.070 | 1.011 | 1.053
CCOC(=O)CN(C)C1=CC(=O)N(C2CCC(=O)NC2=O)C1=O (stereo not drawn) [Compound 17, Ethyl N-(1-(2,6-dioxopiperidin-3-yl)-2,5-dioxo-2,5-dihydro-1H-pyrrol-3-yl)-N-methylglycinate] | 0.942 | 1.001 | 0.795 | 0.897 | 0.912 | 0.895 | 1.006 | 0.996 | 1.037 | 0.043 | 0.032 | 0.015 | 1.020 | 1.018 | 1.025
O=C1CCC(N2C(=O)C=C(Nc3nc[nH]n3)C2=O)C(=O)N1 (stereo not drawn) [Compound 18, 3-(3-((1H-1,2,4-triazol-3-yl)amino)-2,5-dioxo-2,5-dihydro-1H-pyrrol-1-yl)piperidine-2,6-dione] | 0.880 | 0.650 | 0.498 | 0.967 | 0.999 | 0.904 | 1.055 | 0.992 | 0.990 | 0.062 | 0.018 | 0.024 | 0.943 | 0.833 | 0.847
O=C1CCC(N2C(=O)C=C(Nc3nccs3)C2=O)C(=O)N1 (stereo not drawn) [Compound 19, 3-(2,5-dioxo-3-(thiazol-2-ylamino)-2,5-dihydro-1H-pyrrol-1-yl)piperidine-2,6-dione] | 1.023 | 0.946 | 0.953 | 1.010 | 1.012 | 0.597 | 0.653 | 0.980 | 0.991 | 0.217 | 0.041 | 0.057 | 0.216 | 0.818 | 0.110
COC(=O)c1n[nH]c(NC2=CC(=O)N(C3CCC(=O)NC3=O)C2=O)n1 (stereo not drawn) [Compound 20, Methyl 5-((1-(2,6-dioxopiperidin-3-yl)-2,5-dioxo-2,5-dihydro-1H-pyrrol-3-yl)amino)-1H-1,2,4-triazole-3-carboxylate] | 0.901 | 1.036 | 1.069 | 0.894 | 0.908 | 0.892 | 0.952 | 0.987 | 1.025 | 0.050 | 0.017 | 0.014 | 0.721 | 0.895 | 0.342
O=C(O)CCCNC1=CC(=O)N(C2CCC(=O)NC2=O)C1=O (stereo not drawn) [Compound 21, 4-((1-(2,6-dioxopiperidin-3-yl)-2,5-dioxo-2,5-dihydro-1H-pyrrol-3-yl)amino)butanoic acid] | 0.693 | 0.938 | 0.909 | 0.937 | 0.921 | 0.957 | 0.996 | 0.951 | 0.946 | 0.047 | 0.019 | 0.012 | 0.842 | 0.975 | 0.998
O=C(O)CCCCNC1=CC(=O)N(C2CCC(=O)NC2=O)C1=O (stereo not drawn) [Compound 22, 5-((1-(2,6-dioxopiperidin-3-yl)-2,5-dioxo-2,5-dihydro-1H-pyrrol-3-yl)amino)pentanoic acid] | 1.058 | 0.883 | 0.745 | 0.953 | 0.962 | 1.044 | 1.001 | 0.982 | 0.935 | 0.055 | 0.032 | 0.018 | 0.984 | 1.028 | 0.939
